Experimental findings from ChEMBL document CHEMBL1909046, “DrugMatrix in vitro pharmacology data” are described below.

The structures appear in SMILES notation.

Test system in one experiment: not listed separately
The experiment can be described thus: DRUGMATRIX: Sodium/nucleoside co-transporter radioligand binding (ligand: nitrobenzylthioinosine). The format is cell membranes, Cavia porcellus, Dunkin-Hartley, Cerebral cortex, Membrane. As to conditions: Not Active = under 50% inhibition at 10 µM.
As to `CC1(C)S[C@@H]2[C@H](NC(=O)[C@H](N)c3ccc(O)cc3)C(=O)N2[C@H]1C(=O)O` [AMOXICILLIN], the IC50 result is “Not Active” and the Ki result is listed as “Not Active”.
Take `NS(=O)(=O)c1cc2c(cc1Cl)NCNS2(=O)=O` [HYDROCHLOROTHIAZIDE]: the IC50 entry is given as “Not Active” and the Ki entry is recorded as “Not Active”.
Regarding `Oc1cccc2cccnc12` [OXYQUINOLINE], the IC50 result is “Not Active” and the Ki result is given as “Not Active”.
`O=c1cc(-c2ccccc2)oc2c1ccc1ccccc12` [ALPHA-NAPHTHOFLAVONE]: the IC50 entry is “Not Active” and the Ki result is on record as “Not Active”.
Regarding `CN(C)CCCC1(c2ccc(F)cc2)OCc2cc(C#N)ccc21` (stereo not given) [CITALOPRAM], the IC50 result was “Not Active” and the Ki entry is given as “Not Active”.

The target of the next experiment is T1, Muscarinic acetylcholine receptor M5 (Homo sapiens, UniProt P08912). Further: in other assays of this panel Not Active means under 50% inhibition at 10 µM.
T1 sequence (P08912 whole entry): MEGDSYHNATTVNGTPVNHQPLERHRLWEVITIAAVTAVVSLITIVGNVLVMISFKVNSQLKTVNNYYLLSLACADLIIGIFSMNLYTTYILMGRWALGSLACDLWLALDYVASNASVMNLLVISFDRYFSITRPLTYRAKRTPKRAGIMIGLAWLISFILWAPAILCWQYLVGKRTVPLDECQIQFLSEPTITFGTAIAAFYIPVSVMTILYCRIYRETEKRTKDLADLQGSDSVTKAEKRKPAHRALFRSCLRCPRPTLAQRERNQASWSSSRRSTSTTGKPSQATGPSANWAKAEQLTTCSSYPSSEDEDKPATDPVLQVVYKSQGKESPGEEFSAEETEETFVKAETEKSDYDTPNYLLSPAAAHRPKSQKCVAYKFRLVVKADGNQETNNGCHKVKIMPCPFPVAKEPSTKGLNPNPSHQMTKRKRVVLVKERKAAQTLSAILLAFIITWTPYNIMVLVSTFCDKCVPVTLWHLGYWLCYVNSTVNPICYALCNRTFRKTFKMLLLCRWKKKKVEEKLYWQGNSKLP
The format is cell membranes, CHO-K1, Membrane. As to conditions: cho-k1.
For `CC1(C)S[C@@H]2[C@H](NC(=O)[C@H](N)c3ccc(O)cc3)C(=O)N2[C@H]1C(=O)O` [AMOXICILLIN], the IC50 result is on record as “Not Active”.
Take `NS(=O)(=O)c1cc2c(cc1Cl)NCNS2(=O)=O` [HYDROCHLOROTHIAZIDE]: the IC50 entry is “Not Active”.
Same read-out and setting: under `Oc1cccc2cccnc12` [OXYQUINOLINE] stands “Not Active”; under `O=c1cc(-c2ccccc2)oc2c1ccc1ccccc12` [ALPHA-NAPHTHOFLAVONE], “Not Active”.
Same read-out and setting: under `CN(C)CCCC1(c2ccc(F)cc2)OCc2cc(C#N)ccc21` (stereo not given) [CITALOPRAM] stands “Not Active”.

Another experiment addresses T2, Alpha-2A adrenergic receptor (Homo sapiens, UniProt P08913).
T2 sequence (P08913 whole entry): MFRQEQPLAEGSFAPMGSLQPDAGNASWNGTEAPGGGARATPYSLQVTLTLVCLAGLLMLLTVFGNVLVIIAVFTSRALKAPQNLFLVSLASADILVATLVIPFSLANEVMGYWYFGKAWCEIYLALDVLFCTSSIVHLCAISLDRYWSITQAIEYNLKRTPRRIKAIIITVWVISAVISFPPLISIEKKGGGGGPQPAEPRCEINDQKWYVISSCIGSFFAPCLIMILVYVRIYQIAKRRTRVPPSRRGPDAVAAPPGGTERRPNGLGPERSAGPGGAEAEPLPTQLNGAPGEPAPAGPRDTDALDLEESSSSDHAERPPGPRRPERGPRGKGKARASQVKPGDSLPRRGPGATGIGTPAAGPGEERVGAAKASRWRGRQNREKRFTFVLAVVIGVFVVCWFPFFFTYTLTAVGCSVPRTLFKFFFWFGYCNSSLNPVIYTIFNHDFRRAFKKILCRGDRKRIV
The format is cell membranes, Sf9, Membrane. Particulars: sf9.
For `CC1(C)S[C@@H]2[C@H](NC(=O)[C@H](N)c3ccc(O)cc3)C(=O)N2[C@H]1C(=O)O` [AMOXICILLIN], the IC50 result is recorded as “Not Active”.
Turning to `NS(=O)(=O)c1cc2c(cc1Cl)NCNS2(=O)=O` [HYDROCHLOROTHIAZIDE], the IC50 entry was “Not Active”.
On the same count and under the same terms, under `Oc1cccc2cccnc12` [OXYQUINOLINE] stands “Not Active”.
As for `O=c1cc(-c2ccccc2)oc2c1ccc1ccccc12` [ALPHA-NAPHTHOFLAVONE], the IC50 entry is listed as “Not Active”.
As to `CN(C)CCCC1(c2ccc(F)cc2)OCc2cc(C#N)ccc21` (stereo not given) [CITALOPRAM], the IC50 result is on record as “Not Active”.

The target in a further experiment is Sodium-dependent dopamine transporter (Homo sapiens, UniProt Q01959). As to the kind of experiment: DRUGMATRIX: Dopamine Transporter radioligand binding (ligand: [125I] RTI-55). The format is cell membranes, CHO-K1, Membrane. As to conditions: cho-k1; Not Active = under 50% inhibition at 10 µM.
Sequence of Sodium-dependent dopamine transporter (Q01959 whole entry): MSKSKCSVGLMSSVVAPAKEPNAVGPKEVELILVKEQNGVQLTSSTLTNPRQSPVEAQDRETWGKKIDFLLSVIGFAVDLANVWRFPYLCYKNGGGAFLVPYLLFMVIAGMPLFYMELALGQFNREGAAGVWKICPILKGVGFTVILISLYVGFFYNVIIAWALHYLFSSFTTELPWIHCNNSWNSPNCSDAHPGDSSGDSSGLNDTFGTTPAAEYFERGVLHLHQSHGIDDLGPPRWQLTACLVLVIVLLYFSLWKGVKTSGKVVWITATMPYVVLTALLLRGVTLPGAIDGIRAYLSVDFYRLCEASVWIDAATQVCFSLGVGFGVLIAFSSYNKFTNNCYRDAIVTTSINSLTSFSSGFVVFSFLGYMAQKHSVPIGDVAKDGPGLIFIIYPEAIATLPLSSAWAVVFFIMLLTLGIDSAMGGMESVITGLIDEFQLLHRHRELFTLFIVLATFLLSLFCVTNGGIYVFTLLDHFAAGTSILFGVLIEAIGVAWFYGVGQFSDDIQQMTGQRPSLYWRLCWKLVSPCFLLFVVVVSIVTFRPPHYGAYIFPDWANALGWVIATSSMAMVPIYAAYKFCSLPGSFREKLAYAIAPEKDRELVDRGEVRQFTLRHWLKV
For the compound `CC1(C)S[C@@H]2[C@H](NC(=O)[C@H](N)c3ccc(O)cc3)C(=O)N2[C@H]1C(=O)O` [AMOXICILLIN], the IC50 result is given as “Not Active”.
On to `NS(=O)(=O)c1cc2c(cc1Cl)NCNS2(=O)=O` [HYDROCHLOROTHIAZIDE], for which the IC50 result is “Not Active”.
On the same count and under the same terms, under `Oc1cccc2cccnc12` [OXYQUINOLINE] stands “Not Active”; under `O=c1cc(-c2ccccc2)oc2c1ccc1ccccc12` [ALPHA-NAPHTHOFLAVONE], “Not Active”.
Still for that read-out and setting: under `CN(C)CCCC1(c2ccc(F)cc2)OCc2cc(C#N)ccc21` (stereo not given) [CITALOPRAM] stands “Not Active”.

A further experiment concerns the target Aldo-keto reductase family 1 member B1 (Rattus norvegicus, UniProt P07943). The format is tissue-based, Lens of camera-type eye.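 Further: inhibition of aldose reductase enzyme activity, measured with DL-glyceraldehyde as the substrate; in other assays of this panel Not Active means under 50% inhibition at 10 µM.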
Conditions: not given
On to `CC1(C)S[C@@H]2[C@H](NC(=O)[C@H](N)c3ccc(O)cc3)C(=O)N2[C@H]1C(=O)O` [AMOXICILLIN], for which the IC50 result is “Not Active”.
Take `NS(=O)(=O)c1cc2c(cc1Cl)NCNS2(=O)=O` [HYDROCHLOROTHIAZIDE]: the IC50 entry was “Not Active”.
On to `Oc1cccc2cccnc12` [OXYQUINOLINE], for which the IC50 result is reported as “Not Active”.
With `O=c1cc(-c2ccccc2)oc2c1ccc1ccccc12` [ALPHA-NAPHTHOFLAVONE], the IC50 entry was “Not Active”.
The same measure, in the same setting: the same measure for `CN(C)CCCC1(c2ccc(F)cc2)OCc2cc(C#N)ccc21` (stereo not given) [CITALOPRAM]: “Not Active”.

The next experiment deals with T3, Receptor-type tyrosine-protein phosphatase C (Homo sapiens, UniProt P08575).
T3 sequence (P08575 whole entry): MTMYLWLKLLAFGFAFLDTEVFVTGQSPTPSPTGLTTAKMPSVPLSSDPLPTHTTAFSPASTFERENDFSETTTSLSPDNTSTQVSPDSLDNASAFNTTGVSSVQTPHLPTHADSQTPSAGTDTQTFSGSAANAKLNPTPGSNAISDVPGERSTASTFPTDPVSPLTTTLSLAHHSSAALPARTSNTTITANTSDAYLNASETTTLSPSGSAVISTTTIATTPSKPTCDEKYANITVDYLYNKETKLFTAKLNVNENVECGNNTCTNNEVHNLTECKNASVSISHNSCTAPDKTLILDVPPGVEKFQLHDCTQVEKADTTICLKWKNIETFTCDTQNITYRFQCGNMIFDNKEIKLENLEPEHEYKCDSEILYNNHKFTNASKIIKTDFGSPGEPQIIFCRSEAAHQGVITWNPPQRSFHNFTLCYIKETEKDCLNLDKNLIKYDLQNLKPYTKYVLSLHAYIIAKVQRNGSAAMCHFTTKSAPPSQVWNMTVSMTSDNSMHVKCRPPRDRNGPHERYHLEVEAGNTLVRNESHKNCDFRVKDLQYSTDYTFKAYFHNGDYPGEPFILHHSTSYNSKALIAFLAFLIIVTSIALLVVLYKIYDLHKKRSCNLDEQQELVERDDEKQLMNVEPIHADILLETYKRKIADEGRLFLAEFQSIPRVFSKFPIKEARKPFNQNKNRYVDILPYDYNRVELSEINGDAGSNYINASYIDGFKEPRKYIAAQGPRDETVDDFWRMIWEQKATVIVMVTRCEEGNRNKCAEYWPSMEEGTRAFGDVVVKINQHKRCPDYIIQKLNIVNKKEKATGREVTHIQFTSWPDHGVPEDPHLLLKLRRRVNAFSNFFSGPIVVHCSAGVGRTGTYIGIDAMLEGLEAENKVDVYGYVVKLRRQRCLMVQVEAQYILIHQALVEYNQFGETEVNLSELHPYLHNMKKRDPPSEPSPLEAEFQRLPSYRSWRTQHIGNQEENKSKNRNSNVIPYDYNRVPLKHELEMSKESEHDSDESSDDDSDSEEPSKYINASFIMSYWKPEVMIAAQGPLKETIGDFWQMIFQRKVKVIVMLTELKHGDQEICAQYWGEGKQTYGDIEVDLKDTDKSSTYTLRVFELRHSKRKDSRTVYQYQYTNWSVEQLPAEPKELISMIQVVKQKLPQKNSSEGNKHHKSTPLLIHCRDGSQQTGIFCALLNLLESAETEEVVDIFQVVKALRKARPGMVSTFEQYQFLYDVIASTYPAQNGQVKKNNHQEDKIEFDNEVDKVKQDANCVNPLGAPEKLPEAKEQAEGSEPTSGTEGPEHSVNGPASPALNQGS
Also on record: species or system Escherichia coli.
Conditions: not given
On to `CC1(C)S[C@@H]2[C@H](NC(=O)[C@H](N)c3ccc(O)cc3)C(=O)N2[C@H]1C(=O)O` [AMOXICILLIN], for which the IC50 result is “Not Active”.
Same read-out and setting: the same measure for `NS(=O)(=O)c1cc2c(cc1Cl)NCNS2(=O)=O` [HYDROCHLOROTHIAZIDE]: “Not Active”.
Turning to `Oc1cccc2cccnc12` [OXYQUINOLINE], the IC50 entry was “Not Active”.
As for `O=c1cc(-c2ccccc2)oc2c1ccc1ccccc12` [ALPHA-NAPHTHOFLAVONE], the IC50 entry is on record as “Not Active”.
Still for that read-out and setting: under `CN(C)CCCC1(c2ccc(F)cc2)OCc2cc(C#N)ccc21` (stereo not given) [CITALOPRAM] stands “Not Active”.

A further experiment concerns the target T4, Type-2 angiotensin II receptor (Homo sapiens, UniProt P50052). Further: in other assays of this panel Not Active means under 50% inhibition at 10 µM.
T4 sequence (P50052 whole entry): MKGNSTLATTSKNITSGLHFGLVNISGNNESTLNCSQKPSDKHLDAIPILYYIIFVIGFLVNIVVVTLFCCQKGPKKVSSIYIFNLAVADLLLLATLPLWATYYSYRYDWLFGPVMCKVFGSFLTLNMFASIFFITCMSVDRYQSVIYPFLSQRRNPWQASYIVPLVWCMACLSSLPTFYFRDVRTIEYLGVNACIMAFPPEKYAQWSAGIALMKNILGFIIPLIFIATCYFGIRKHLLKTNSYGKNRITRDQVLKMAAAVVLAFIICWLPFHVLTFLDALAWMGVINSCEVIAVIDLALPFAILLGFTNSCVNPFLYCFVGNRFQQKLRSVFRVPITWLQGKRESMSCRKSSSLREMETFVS
Format: cell-based. As to conditions: cho-k1.
As to `CC1(C)S[C@@H]2[C@H](NC(=O)[C@H](N)c3ccc(O)cc3)C(=O)N2[C@H]1C(=O)O` [AMOXICILLIN], the IC50 result is recorded as “Not Active”.
On the same count and under the same terms, under `NS(=O)(=O)c1cc2c(cc1Cl)NCNS2(=O)=O` [HYDROCHLOROTHIAZIDE] stands “Not Active”; under `Oc1cccc2cccnc12` [OXYQUINOLINE], “Not Active”.
Consider `O=c1cc(-c2ccccc2)oc2c1ccc1ccccc12` [ALPHA-NAPHTHOFLAVONE], for which the IC50 result is listed as “Not Active”.
`CN(C)CCCC1(c2ccc(F)cc2)OCc2cc(C#N)ccc21` (stereo not given) [CITALOPRAM]: the IC50 entry is “Not Active”.
